According to publication PMC9516332 (Frontiers in Oncology, 2022):
Like-named read-outs stand apart in the source and are kept apart here.

Tested on: 134 cancer cell lines
Experiment: Cell viability assay (ATPlite, 72 hours), IC50 on cancer cell line panel

- IC50 (Homo sapiens, MKN-45, read-out: IC50 in cell proliferation assay, MKN45 cell line (MET amplification)): 2680 nM
- IC50 (Homo sapiens, MOLM-13, read-out: IC50 in cell proliferation assay, MOLM-13 cell line (FLT3 ITD)): 822 nM
- IC50 (Homo sapiens, MOLT-4, read-out: IC50 in cell proliferation assay, MOLT-4 cell line): > 31600 nM
- IC50 (Homo sapiens, MV4-11, read-out: IC50 in cell proliferation assay, MV4-11 cell line (FLT3 ITD)): 178 nM
- IC50 (Homo sapiens, MeWo, read-out: IC50 in cell proliferation assay, MeWo cell line): 5400 nM
- IC50 (Homo sapiens, NCCIT, read-out: IC50 in cell proliferation assay, NCC-IT cell line): 25900 nM
- IC50 (Homo sapiens, NCI-H82, read-out: IC50 in cell proliferation assay, cell line NCI-H82): 6840 nM
- IC50 (Homo sapiens, NCI-H460, read-out: IC50 in cell proliferation assay, NCI-H460 cell line): 297 nM
- IC50 (Homo sapiens, NCI-H661, read-out: IC50 in cell proliferation assay, NCI-H661 cell line): > 31600 nM
- IC50 (Homo sapiens, NCI-H716, read-out: IC50 in cell proliferation assay, cell line NCI-H716 (FGFR2-COL14A1)): 197 nM
- IC50 (Homo sapiens, NCI-H1650, read-out: IC50 in cell proliferation assay, NCI-H1650 cell line (EGFR exon19del)): > 31600 nM
- IC50 (Homo sapiens, NCI-H1975, read-out: IC50 in cell proliferation assay, NCI-H1975 cell line (EGFR p.L858R + p.T790M)): 1920 nM
- IC50 (Homo sapiens, NCI-H2228, read-out: IC50 in cell proliferation assay, NCI-H2228 cell line (EML4-ALK)): 294 nM
- IC50 (Homo sapiens, OVCAR-3, read-out: IC50 in cell proliferation assay, cell line OVCAR-3): > 31600 nM
- IC50 (Homo sapiens, PFSK-1, read-out: IC50 in cell proliferation assay, cell line PFSK-1): > 31600 nM
- IC50 (Homo sapiens, RL95-2, read-out: IC50 in cell proliferation assay, cell line RL95-2 (EGFR p.A289V)): 12 nM
- IC50 (Homo sapiens, RPMI-7951, read-out: IC50 in cell proliferation assay, cell line RPMI-7951 (BRAF p.V600E)): 143 nM
- IC50 (Homo sapiens, RS4-11, read-out: IC50 in cell proliferation assay, cell line RS4;11): 18200 nM
- IC50 (Homo sapiens, Rec1, read-out: IC50 in cell proliferation assay, cell line REC-1): > 31600 nM
- IC50 (Homo sapiens, SHP77, read-out: IC50 in cell proliferation assay, cell line SHP-77): > 31600 nM
- IC50 (Homo sapiens, SK-BR-3, read-out: IC50 in cell proliferation assay, cell line SK-BR-3 (ERBB2 amplification)): > 31600 nM
- IC50 (Homo sapiens, SK-N-AS, read-out: IC50 in cell proliferation assay, cell line SK-N-AS): 20 nM
- IC50 (Homo sapiens, SK-N-FI, read-out: IC50 in cell proliferation assay, cell line SK-N-FI): 8410 nM
- IC50 (Homo sapiens, SK-N-MC, read-out: IC50 in cell proliferation assay, cell line SK-N-MC): > 31600 nM
- IC50 (Homo sapiens, SK-N-SH, read-out: IC50 in cell proliferation assay, cell line SK-N-SH (ALK p.F1174L)): 66 nM
- IC50 (Homo sapiens, SNU-5, read-out: IC50 in cell proliferation assay, cell line SNU-5 (MET amplification)): 1310 nM
- IC50 (Homo sapiens, SNU-16, read-out: IC50 in cell proliferation assay, cell line SNU-16 (FGFR2 amplification)): > 31600 nM
- IC50 (Homo sapiens, SNU-C2B, read-out: IC50 in cell proliferation assay, cell line SNU-C2B (EGFR p.R165Q)): 36 nM
- IC50 (Homo sapiens, SU-DHL-1, read-out: IC50 in cell proliferation assay, cell line SU-DHL-1 (NPM1-ALK)): 7710 nM
- IC50 (Homo sapiens, SU-DHL-6, read-out: IC50 in cell proliferation assay, cell line SU-DHL-6): > 31600 nM
- IC50 (Homo sapiens, SUP-T1, read-out: IC50 in cell proliferation assay, cell line SUP-T1): > 31600 nM
- IC50 (Homo sapiens, SW48, read-out: IC50 in cell proliferation assay, cell line SW48 (EGFR p.G719S)): 34 nM
- IC50 (Homo sapiens, SW480, read-out: IC50 in cell proliferation assay, cell line SW480): 29 nM
- IC50 (Homo sapiens, SW626, read-out: IC50 in cell proliferation assay, cell line SW626): 44 nM
- IC50 (Homo sapiens, SW780, read-out: IC50 in cell proliferation assay, cell line SW780 (FGFR3-BAIAP2L1)): 447 nM
- IC50 (Homo sapiens, SW837, read-out: IC50 in cell proliferation assay, cell line SW837): 220 nM
- IC50 (Homo sapiens, SW872, read-out: IC50 in cell proliferation assay, cell line SW872 (BRAF p.V600E)): 25 nM
- IC50 (Homo sapiens, SW900, read-out: IC50 in cell proliferation assay, cell line SW900): 35 nM
- IC50 (Homo sapiens, SW948, read-out: IC50 in cell proliferation assay, cell line SW948): 62 nM
- IC50 (Homo sapiens, SW982, read-out: IC50 in cell proliferation assay, cell line SW982 (BRAF p.V600E)): 972 nM
- IC50 (Homo sapiens, SW-620, read-out: IC50 in cell proliferation assay, cell line SW620): 24 nM
- IC50 (Homo sapiens, T98G, read-out: IC50 in cell proliferation assay, cell line T98G): > 31600 nM
- IC50 (Homo sapiens, TCC-SUP, read-out: IC50 in cell proliferation assay, cell line TCCSUP): > 31600 nM
- IC50 (Homo sapiens, THP-1, read-out: IC50 in cell proliferation assay, cell line THP-1): 25 nM
- IC50 (Homo sapiens, U2OS, read-out: IC50 in cell proliferation assay, cell line U2OS): 10600 nM
- IC50 (Homo sapiens, U-87 MG, read-out: IC50 in cell proliferation assay, cell line U-87MG ATCC): 1090 nM
- IC50 (Homo sapiens, U-118-MG, read-out: IC50 in cell proliferation assay, cell line U-118MG): > 31600 nM
- IC50 (Homo sapiens, UMUC3, read-out: IC50 in cell proliferation assay, cell line UM-UC-3): 801 nM
- IC50 (Hs766T, read-out: IC50 in cell proliferation assay, Hs 766T cell line): 22 nM
- IC50 (L-82, read-out: IC50 in cell proliferation assay, L-82 cell line (NPM1-ALK)): 950 nM
- IC50 (Rh30, read-out: IC50 in cell proliferation assay, cell line Rh30): > 31600 nM
- IC50 (read-out: IC50 in cell proliferation assay, 11-18 cell line (EGFR p.L858R)): > 31600 nM
- IC50 (read-out: IC50 in cell proliferation assay, Hs 852.T cell line): 345 nM
- IC50 (read-out: IC50 in cell proliferation assay, JAR cell line): > 31600 nM
- IC50 (read-out: IC50 in cell proliferation assay, cell line 5637): 8000 nM
- IC50 (read-out: IC50 in cell proliferation assay, cell line A-388): > 31600 nM
- IC50 (read-out: IC50 in cell proliferation assay, cell line DB): > 31600 nM
- IC50 (read-out: IC50 in cell proliferation assay, cell line DEL (NPM1-ALK)): > 31600 nM
- IC50 (read-out: IC50 in cell proliferation assay, cell line ES-2 (BRAF p.V600E)): 242 nM
- IC50 (read-out: IC50 in cell proliferation assay, cell line PA-1): 556 nM
- IC50 (read-out: IC50 in cell proliferation assay, cell line PC-3): > 31600 nM
- IC50 (read-out: IC50 in cell proliferation assay, cell line RD): 59 nM
- IC50 (read-out: IC50 in cell proliferation assay, cell line RKO (BRAF p.V600E)): 367 nM
- IC50 (read-out: IC50 in cell proliferation assay, cell line RL): > 31600 nM
- IC50 (read-out: IC50 in cell proliferation assay, cell line RT-4 (FGFR3-TACC3)): 21300 nM
- IC50 (read-out: IC50 in cell proliferation assay, cell line SR (NPM1-ALK)): 25500 nM
- IC50 (read-out: IC50 in cell proliferation assay, cell line T24): 92 nM
- IC50 (read-out: IC50 in cell proliferation assay, cell line TT (RET p.C634W)): > 31600 nM
- IC50 (read-out: IC50 in cell proliferation assay, cell line VA-ES-BJ): > 31600 nM
Structure (SMILES): Cn1cnc2c(F)c(Nc3ccc(Br)cc3Cl)c(C(=O)NOCCO)cc21 [selumetinib]
